# Results as given in patent US6479435B1, “Diaryl ethers and processes for their preparation and herbicidal and desiccant compositions containing them” (ISK Americas Incorporated, priority 1997, dated 2002).
# Columns and labels:
# Assay type in all cases: in vivo
# [1] = test system: field corn (Zea mays L., var. Dekalb 535, CORN); assay: Post-emerge greenhouse test, crop damage rating; conditions: 14 days after application; for crop damage rating CORN: scale 0-100
# Procedure, shortened: (§1)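 Scores use a 0 (no damage) to 100 (complete kill) scale, taken 14 days after a foliar spray. Acetone solutions with 0.25% v/v non-ionic surfactant were applied by track sprayer at 187 l/ha and 63-1000 g ai/ha to bottom-watered 2-3 leaf plants.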
# [2] = test system: upland rice (Oryza sp., var.Tebonnet, RICE); assay: Post-emerge greenhouse test, crop damage rating; conditions: 14 days after application; for crop damage rating RICE: scale 0-100
# Procedure, shortened: as §1
# [3] = test system: barnyardgrass (Echinochloa crusgalli, ECHCG); assay: Pre-emerge greenhouse herbicide test, phytotoxicity rating; conditions: 14 days after application, rating scale 0-100
# Procedure, shortened: (§2)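 Visual 0–100 injury rating (100 = all plants dead) taken 14 days after treatment. Rates of 125–1000 g ai/ha in acetone, 187 l/ha, were sprayed onto soil one day post-sowing; pots were surface-watered to incorporate, then bottom-watered.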
# [4] = test system: green foxtail (Setaria viridis, SETVI); assay: as above; conditions: 14 days after application, rating scale 0-100
# Procedure, shortened: as §2
# [5] = test system: sicklepod (Cassia obtusifolia, CASOB); assay: as above; conditions: 14 days after application, rating scale 0-100
# Procedure, shortened: as §2
# [6] = test system: lambsquarters (Chenopodium album, CHEAL); assay: as above; conditions: 14 days after application, rating scale 0-100
# Procedure, shortened: as §2
# [7] = test system: velvetleaf (Abutilon theophrasti, ABUTH); assay: as above; conditions: 14 days after application, rating scale 0-100
# Procedure, shortened: as §2
# [8] = test system: large crabgrass (Digitaria sanguinalis, DIGSA); assay: as above; conditions: 14 days after application, rating scale 0-100
# Procedure, shortened: as §2
# [9] = test system: common ragweed (Ambrosia artemisiifolia L., AMBEL); assay: as above; conditions: 14 days after application, rating scale 0-100
# Procedure, shortened: as §2
# [10] = test system: redroot pigweed (Amaranthus retroflexus, AMARE); assay: as above; conditions: 14 days after application, rating scale 0-100
# Procedure, shortened: as §2
# [11] = test system: Johnsongrass (Sorghum halepense, SORHA); assay: as above; conditions: 14 days after application, rating scale 0-100
# Procedure, shortened: as §2
# [12] = test system: ivyleaf morningglory (Ipomoea hederacea, IPOHE); assay: as above; conditions: 14 days after application, rating scale 0-100
# Procedure, shortened: as §2
# [13] = test system: common ragweed (Ambrosia artemisiifolia L., AMBEL); assay: Post-emerge greenhouse herbicide test, phytotoxicity rating; conditions: 14 days after application; for phytotoxicity rating AMBEL: scale 0-100
# Procedure, shortened: as §1
# [14] = test system: soybean (Glycine max L., var. Pella 86, SOY); assay: Pre-emerge greenhouse test, crop damage rating; design: key to SOY crop damage rating: 0 = no damage, 100 = complete death of all plants; conditions: 14 days after application, rating scale 0-100
# Procedure, shortened: as §2
# [15] = test system: field corn (Zea mays L., var. Dekalb 535, CORN); assay: Pre-emerge greenhouse test, crop damage rating; conditions: 14 days after application, rating scale 0-100
# Procedure, shortened: as §2
# [16] = test system: upland rice (Oryza sp., var.Tebonnet, RICE); assay: Pre-emerge greenhouse test, crop damage rating; conditions: 14 days after application, rating scale 0-100
# Procedure, shortened: as §2
# [17] = test system: barnyardgrass (Echinochloa crusgalli, ECHCG); assay: Post-emerge greenhouse herbicide test, phytotoxicity rating; conditions: 14 days after application; for phytotoxicity rating ECHCG: scale 0-100
# Procedure, shortened: as §1
# [18] = test system: green foxtail (Setaria viridis, SETVI); assay: as above; conditions: 14 days after application; for phytotoxicity rating SETVI: scale 0-100
# Procedure, shortened: as §1
# [19] = test system: sicklepod (Cassia obtusifolia, CASOB); assay: as above; conditions: 14 days after application; for phytotoxicity rating CASOB: scale 0-100
# Procedure, shortened: as §1
# [20] = test system: lambsquarters (Chenopodium album, CHEAL); assay: as above; conditions: 14 days after application; for phytotoxicity rating CHEAL: scale 0-100
# Procedure, shortened: as §1
# [21] = test system: velvetleaf (Abutilon theophrasti, ABUTH); assay: as above; conditions: 14 days after application; for phytotoxicity rating ABUTH: scale 0-100
# Procedure, shortened: as §1
# [22] = test system: large crabgrass (Digitaria sanguinalis, DIGSA); assay: as above; conditions: 14 days after application; for phytotoxicity rating DIGSA: scale 0-100
# Procedure, shortened: as §1
# [23] = test system: redroot pigweed (Amaranthus retroflexus, AMARE); assay: as above; conditions: 14 days after application; for phytotoxicity rating AMARE: scale 0-100
# Procedure, shortened: as §1
# [24] = test system: Johnsongrass (Sorghum halepense, SORHA); assay: as above; conditions: 14 days after application; for phytotoxicity rating SORHA: scale 0-100
# Procedure, shortened: as §1
# [25] = test system: ivyleaf morningglory (Ipomoea hederacea, IPOHE); assay: as above; conditions: 14 days after application; for phytotoxicity rating IPOHE: scale 0-100
# Procedure, shortened: as §1
# [26] = test system: soybean (Glycine max L., var. Pella 86, SOY); assay: Post-emerge greenhouse test, crop damage rating; design: key to crop damage rating SOY: 0-100 scale: 0 = no damage, 100 = complete death of all plants; conditions: 14 days after application; for crop damage rating SOY: scale 0-100
# Procedure, shortened: as §1
smiles,measurement,setting,value
O=c1n(-c2cc(Oc3nccc(Cl)n3)c(Cl)cc2F)c(=S)n2n1CCCC2 [Compound 8-31],crop damage rating CORN,[1]; rate 63 g ai/ha,5
same,crop damage rating CORN,[1]; rate 500 g ai/ha,10
same,crop damage rating RICE,[2]; rate 63 g ai/ha,0
same,crop damage rating RICE,[2]; rate 500 g ai/ha,5
same,ECHCG phytotoxicity rating,[3]; Rate 125 g al/ha,0
same,ECHCG phytotoxicity rating,[3]; Rate 500 g al/ha,20
same,SETVI phytotoxicity rating,[4]; Rate 125 g al/ha,0
same,SETVI phytotoxicity rating,[4]; Rate 500 g al/ha,90
same,CASOB phytotoxicity rating,[5]; Rate 125 g al/ha,30
same,CASOB phytotoxicity rating,[5]; Rate 500 g al/ha,90
same,CHEAL phytotoxicity rating,[6]; Rate 125 g al/ha,90
same,CHEAL phytotoxicity rating,[6]; Rate 500 g al/ha,100
same,ABUTH phytotoxicity rating,[7]; Rate 125 g al/ha,100
same,ABUTH phytotoxicity rating,[7]; Rate 500 g al/ha,100
same,DIGSA phytotoxicity rating,[8]; Rate 125 g al/ha,0
same,DIGSA phytotoxicity rating,[8]; Rate 500 g al/ha,70
same,AMBEL phytotoxicity rating,[9]; Rate 125 g al/ha,30
same,AMBEL phytotoxicity rating,[9]; Rate 500 g al/ha,0
same,AMARE phytotoxicity rating,[10]; Rate 125 g al/ha,100
same,AMARE phytotoxicity rating,[10]; Rate 500 g al/ha,100
same,SORHA phytotoxicity rating,[11]; Rate 125 g al/ha,0
same,SORHA phytotoxicity rating,[11]; Rate 500 g al/ha,20
same,IPOHE phytotoxicity rating,[12]; Rate 125 g al/ha,0
same,IPOHE phytotoxicity rating,[12]; Rate 500 g al/ha,70
same,phytotoxicity rating AMBEL,[13]; rate 63 g ai/ha,50
same,phytotoxicity rating AMBEL,[13]; rate 500 g ai/ha,95
same,SOY crop damage rating,[14]; Rate 125 g al/ha,40
same,SOY crop damage rating,[14]; Rate 500 g al/ha,0
same,CORN crop damage rating,[15]; Rate 125 g al/ha,0
same,CORN crop damage rating,[15]; Rate 500 g al/ha,0
same,RICE crop damage rating,[16]; Rate 125 g al/ha,0
same,RICE crop damage rating,[16]; Rate 500 g al/ha,10
same,phytotoxicity rating ECHCG,[17]; rate 63 g ai/ha,0
same,phytotoxicity rating ECHCG,[17]; rate 500 g ai/ha,20
same,phytotoxicity rating SETVI,[18]; rate 63 g ai/ha,10
same,phytotoxicity rating SETVI,[18]; rate 500 g ai/ha,40
same,phytotoxicity rating CASOB,[19]; rate 63 g ai/ha,0
same,phytotoxicity rating CASOB,[19]; rate 500 g ai/ha,80
same,phytotoxicity rating CHEAL,[20]; rate 63 g ai/ha,90
same,phytotoxicity rating CHEAL,[20]; rate 500 g ai/ha,95
same,phytotoxicity rating ABUTH,[21]; rate 63 g ai/ha,70
same,phytotoxicity rating ABUTH,[21]; rate 500 g ai/ha,100
same,phytotoxicity rating DIGSA,[22]; rate 63 g ai/ha,0
same,phytotoxicity rating DIGSA,[22]; rate 500 g ai/ha,50
same,phytotoxicity rating AMARE,[23]; rate 63 g ai/ha,70
same,phytotoxicity rating AMARE,[23]; rate 500 g ai/ha,100
same,phytotoxicity rating SORHA,[24]; rate 63 g ai/ha,0
same,phytotoxicity rating SORHA,[24]; rate 500 g ai/ha,30
same,phytotoxicity rating IPOHE,[25]; rate 63 g ai/ha,80
same,phytotoxicity rating IPOHE,[25]; rate 500 g ai/ha,80
same,crop damage rating SOY,[26]; rate 63 g ai/ha,70
same,crop damage rating SOY,[26]; rate 500 g ai/ha,70
Nc1ccc(Oc2cc(-n3c(=O)n4n(c3=S)CCCC4)c(F)cc2Cl)cc1 [Compound 8-9],CORN crop damage rating (0-100),[1]; 63 g al/ha,0
same,CORN crop damage rating (0-100),[1]; 500 g al/ha,10
same,RICE crop damage rating (0-100),[2]; 63 g al/ha,0
same,RICE crop damage rating (0-100),[2]; 500 g al/ha,0
same,phytotoxicity rating ECHCG,[3]; 125 g ai/ha,0
same,phytotoxicity rating ECHCG,[3]; 500 g ai/ha,0
same,phytotoxicity rating SETVI,[4]; 125 g ai/ha,0
same,phytotoxicity rating SETVI,[4]; 500 g ai/ha,30
same,phytotoxicity rating CASOB,[5]; 125 g ai/ha,0
same,phytotoxicity rating CASOB,[5]; 500 g ai/ha,40
same,phytotoxicity rating CHEAL,[6]; 125 g ai/ha,70
same,phytotoxicity rating CHEAL,[6]; 500 g ai/ha,100
same,phytotoxicity rating ABUTH,[7]; 125 g ai/ha,60
same,phytotoxicity rating ABUTH,[7]; 500 g ai/ha,100
same,phytotoxicity rating DIGSA,[8]; 125 g ai/ha,0
same,phytotoxicity rating DIGSA,[8]; 500 g ai/ha,0
same,phytotoxicity rating AMBEL,[9]; 125 g ai/ha,30
same,phytotoxicity rating AMBEL,[9]; 500 g ai/ha,30
same,phytotoxicity rating AMARE,[10]; 125 g ai/ha,100
same,phytotoxicity rating AMARE,[10]; 500 g ai/ha,95
same,phytotoxicity rating SORHA,[11]; 125 g ai/ha,0
same,phytotoxicity rating SORHA,[11]; 500 g ai/ha,0
same,phytotoxicity rating IPOHE,[12]; 125 g ai/ha,0
same,phytotoxicity rating IPOHE,[12]; 500 g ai/ha,10
same,AMBEL phytotoxicity rating (0-100),[13]; 63 g al/ha,30
same,AMBEL phytotoxicity rating (0-100),[13]; 500 g al/ha,80
same,crop damage rating SOY,[14]; 125 g ai/ha,0
same,crop damage rating SOY,[14]; 500 g ai/ha,0
same,crop damage rating CORN,[15]; 125 g ai/ha,0
same,crop damage rating CORN,[15]; 500 g ai/ha,0
same,crop damage rating RICE,[16]; 125 g ai/ha,0
same,crop damage rating RICE,[16]; 500 g ai/ha,0
same,ECHCG phytotoxicity rating (0-100),[17]; 63 g al/ha,0
same,ECHCG phytotoxicity rating (0-100),[17]; 500 g al/ha,0
same,SETVI phytotoxicity rating (0-100),[18]; 63 g al/ha,0
same,SETVI phytotoxicity rating (0-100),[18]; 500 g al/ha,30
same,CASOB phytotoxicity rating (0-100),[19]; 63 g al/ha,0
same,CASOB phytotoxicity rating (0-100),[19]; 500 g al/ha,100
same,CHEAL phytotoxicity rating (0-100),[20]; 63 g al/ha,60
same,CHEAL phytotoxicity rating (0-100),[20]; 500 g al/ha,95
same,ABUTH phytotoxicity rating (0-100),[21]; 63 g al/ha,50
same,ABUTH phytotoxicity rating (0-100),[21]; 500 g al/ha,100
same,DIGSA phytotoxicity rating (0-100),[22]; 63 g al/ha,0
same,DIGSA phytotoxicity rating (0-100),[22]; 500 g al/ha,10
same,AMARE phytotoxicity rating (0-100),[23]; 63 g al/ha,90
same,AMARE phytotoxicity rating (0-100),[23]; 500 g al/ha,100
same,SORHA phytotoxicity rating (0-100),[24]; 63 g al/ha,0
same,SORHA phytotoxicity rating (0-100),[24]; 500 g al/ha,30
same,IPOHE phytotoxicity rating (0-100),[25]; 63 g al/ha,40
same,IPOHE phytotoxicity rating (0-100),[25]; 500 g al/ha,100
same,SOY crop damage rating (0-100),[26]; 63 g al/ha,20
same,SOY crop damage rating (0-100),[26]; 500 g al/ha,70
